ChEMBL document CHEMBL1201862, “PubChem BioAssay data set” (2004)
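Cultured in 96-well plates, cells were exposed to test compound for 48 hours across five concentrations. GI50 is the concentration that inhibits growth by half.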 The source made the active and inactive calls. Rule as the data show it: active = GI50 up to about 1.1 µM and inactive = higher.

Key:
Assay in all cases: NCI anticancer screen, dose series, 48 h
ACHN = tested on: ACHN
SNB-75 = tested on: SNB-75
PC-3 = tested on: PC-3
CAKI-1 = tested on: CAKI-1
MDA-MB-231 = tested on: MDA-MB-231
OVCAR-3 = tested on: OVCAR-3
HOP-62 = tested on: HOP-62
HCC 2998 = tested on: HCC 2998
Hs-578T = tested on: Hs-578T
SK-MEL-5 = tested on: SK-MEL-5
NCI/ADR-RES = tested on: NCI/ADR-RES
HT-29 = tested on: HT-29
HCT-15 = tested on: HCT-15
BT-549 = tested on: BT-549
MCF7 = tested on: MCF7
MDA-N = tested on: MDA-N
EKVX = tested on: EKVX
K562 = tested on: K562
LOX IMVI = tested on: LOX IMVI

| Structure (SMILES) | GI50 (ACHN) | GI50 (SNB-75) | GI50 (PC-3) | GI50 (CAKI-1) | GI50 (MDA-MB-231) | GI50 (OVCAR-3) | GI50 (HOP-62) | GI50 (HCC 2998) | GI50 (Hs-578T) | GI50 (SK-MEL-5) | GI50 (NCI/ADR-RES) | GI50 (HT-29) | GI50 (HCT-15) | GI50 (BT-549) | GI50 (MCF7) | GI50 (MDA-N) | GI50 (EKVX) | GI50 (K562) | GI50 (LOX IMVI) |
| --- | --- | --- | --- | --- | --- | --- | --- | --- | --- | --- | --- | --- | --- | --- | --- | --- | --- | --- | --- |
| O=C1OCC2OC(=O)c3cc(O)c(O)c(O)c3-c3c(O)c(O)c(O)c4c3C(=O)OC(C2OC(=O)c2cc(O)c(O)c(O)c2-c2c1cc(O)c(O)c2O)C1OC(=O)c2c-4c(O)c(O)c(O)c2[C@@H]1C(O)C(O)C(O)C(O)CO (some centres not stated) | 16.5 µM (inactive) | < 0.01 µM (active) | 20.7 µM (inactive) | 13.6 µM (inactive) | 12.7 µM (inactive) | 28.2 µM (inactive) | 17.9 µM (inactive) | 21.6 µM (inactive) | 27.9 µM (inactive) | 14.1 µM (inactive) | 22.2 µM (inactive) | 14.4 µM (inactive) | 16.1 µM | 22.8 µM (inactive) | 3.82 µM (inactive) | 7.11 µM (inactive) | 19.8 µM (inactive) | 10.5 µM (inactive) | 2.25 µM (inactive) |
| Nc1n[nH]c2nc3ccc(C(F)(F)F)cc3nc12 | 25.1 µM (inactive) | 13.6 µM (inactive) | 25.9 µM (inactive) | 31.5 µM (inactive) | 43.6 µM (inactive) |  | 18.5 µM (inactive) | 37.7 µM (inactive) | 28.5 µM (inactive) | 48.9 µM (inactive) | 33.4 µM (inactive) | 29.8 µM (inactive) | 23.1 µM | 23.1 µM (inactive) | 15.3 µM (inactive) | 35.3 µM (inactive) | 7.87 µM (inactive) | 42.7 µM (inactive) | 18.6 µM (inactive) |
| CC(=O)NC1c2ccccc2C(C)(C)C12CCC1(CC2)OCCO1 (configuration not stated) | > 100 µM (inactive) | > 100 µM (inactive) | > 100 µM (inactive) | > 100 µM (inactive) | > 100 µM (inactive) |  | > 100 µM (inactive) | > 100 µM (inactive) | > 100 µM (inactive) | > 100 µM (inactive) | > 100 µM (inactive) | > 100 µM (inactive) | > 100 µM | > 100 µM (inactive) | > 100 µM (inactive) | > 100 µM (inactive) | > 100 µM (inactive) | > 100 µM (inactive) | > 100 µM (inactive) |
| O=C1/C(=C/c2ccc(Cl)cc2)CCC/C1=C\c1ccc(O)c(CN2CCCCC2)c1 | 15.7 µM (inactive) | 19.1 µM (inactive) | 8.91 µM (inactive) | 18.9 µM (inactive) | 26.9 µM (inactive) | 24.1 µM (inactive) | 39 µM (inactive) | 20.2 µM (inactive) | 15.7 µM (inactive) | 15.1 µM (inactive) | 12.9 µM (inactive) | 3.54 µM (inactive) | 12.2 µM | 11.2 µM (inactive) | 47.1 µM (inactive) | 12.9 µM (inactive) | 18.1 µM (inactive) | 9.29 µM (inactive) | 13.1 µM (inactive) |
| CCN(CC)c1ccc2c(c1)OC(=O)C(c1nnc(-c3ccc([N+](=O)[O-])cc3)o1)C2 (configuration not stated) | > 100 µM (inactive) | > 100 µM (inactive) | > 100 µM (inactive) | > 100 µM (inactive) | > 100 µM (inactive) | > 100 µM (inactive) | > 100 µM (inactive) | > 100 µM (inactive) | > 100 µM (inactive) | > 100 µM (inactive) | > 100 µM (inactive) | > 100 µM (inactive) | > 100 µM | > 100 µM (inactive) | > 100 µM (inactive) | > 100 µM (inactive) | 10.2 µM (inactive) | 38 µM (inactive) | > 100 µM (inactive) |
| CCOP1(=O)CC(C)=C(Cl)C(OC)C1 (configuration not stated) | > 100 µM (inactive) | > 100 µM (inactive) | > 100 µM (inactive) | > 100 µM (inactive) | > 100 µM (inactive) | > 100 µM (inactive) | > 100 µM (inactive) | > 100 µM (inactive) | > 100 µM (inactive) | > 100 µM (inactive) | > 100 µM (inactive) | > 100 µM (inactive) | > 100 µM | > 100 µM (inactive) | > 100 µM (inactive) | > 100 µM (inactive) | > 100 µM (inactive) | 30.5 µM (inactive) | 61.7 µM (inactive) |
| O=C1CSC2(CC(/C=C/c3ccccc3)=NN2c2cccc(S(=O)(=O)O)c2)N1c1nc2ccccc2s1 (configuration not stated) | 27 µM (inactive) | 26.7 µM (inactive) | 25.6 µM (inactive) | 38.5 µM (inactive) | 24.5 µM (inactive) |  |  | 59.4 µM (inactive) | 55.5 µM (inactive) | 44.6 µM (inactive) | 34.1 µM (inactive) | 38.3 µM (inactive) | 32.6 µM | 24.8 µM (inactive) | 17.1 µM (inactive) | 35.2 µM (inactive) | 60.4 µM (inactive) | 35.1 µM (inactive) | 9.59 µM (inactive) |
| C[Si](C)(C)C#CCOC=C1CC1 | > 100 µM (inactive) | > 100 µM (inactive) | > 100 µM (inactive) | > 100 µM (inactive) | > 100 µM (inactive) |  | > 100 µM (inactive) | > 100 µM (inactive) | > 100 µM (inactive) | > 100 µM (inactive) | > 100 µM (inactive) | > 100 µM (inactive) | > 100 µM | > 100 µM (inactive) | > 100 µM (inactive) | > 100 µM (inactive) | > 100 µM (inactive) | > 100 µM (inactive) | 28.6 µM (inactive) |
| c1ccc(C(c2cccc3c2ccc2ccccc23)C(c2ccccc2)c2cccc3c2ccc2ccccc23)cc1 (configuration not stated) | > 100 µM (inactive) | > 100 µM (inactive) | > 100 µM (inactive) | > 100 µM (inactive) | > 100 µM (inactive) | > 100 µM (inactive) | > 100 µM (inactive) | > 100 µM (inactive) | > 100 µM (inactive) | > 100 µM (inactive) | > 100 µM (inactive) | > 100 µM (inactive) | > 100 µM | > 100 µM (inactive) | > 100 µM (inactive) | > 100 µM (inactive) | > 100 µM (inactive) | > 100 µM (inactive) | > 100 µM (inactive) |
| C/C=C(\C)[C@@H](O)C(=O)O[C@@H]1CC(C(C)(C)O)[C@](C)(CCC(=O)OC)[C@H]2[C@H](OC(=O)[C@H](O)[C@H](C)CC)C[C@]3(C)C(=CC[C@H]3[C@H]3CO[C@H](C=C(C)C)C3)[C@]12C (some centres not stated) | 18.1 µM (inactive) | 15.4 µM (inactive) | 16.7 µM (inactive) | 27.7 µM (inactive) | 19.6 µM (inactive) | 20.1 µM (inactive) | 35.3 µM (inactive) | 16.2 µM (inactive) | 19.8 µM (inactive) | 17.4 µM (inactive) | 16.4 µM (inactive) | 19 µM (inactive) | 19 µM | 18 µM (inactive) | 19.3 µM (inactive) | 20 µM (inactive) | 15.3 µM (inactive) | 17.8 µM (inactive) | 17.6 µM (inactive) |
| CCOC(=O)NC(Nc1ccc(C(=O)O)cc1)(C(F)(F)F)C(F)(F)F | > 100 µM (inactive) | > 100 µM (inactive) | > 100 µM (inactive) | > 100 µM (inactive) | > 100 µM (inactive) | > 100 µM (inactive) | > 100 µM (inactive) | > 100 µM (inactive) | > 100 µM (inactive) | > 100 µM (inactive) | > 100 µM (inactive) | > 100 µM (inactive) | > 100 µM | > 100 µM (inactive) | > 100 µM (inactive) | > 100 µM (inactive) | > 100 µM (inactive) | > 100 µM (inactive) | > 100 µM (inactive) |
| C=CC[C@@]1([C@H](C=C)COCc2ccc(OC)cc2)CC[C@]2(C)OC(C)(C)[C@@H](c3ccccc3)N2C1=S | 43 µM (inactive) | 60.1 µM (inactive) | 31.4 µM (inactive) | > 100 µM (inactive) | 46.2 µM (inactive) | 59.4 µM (inactive) | 71.8 µM (inactive) | 44.8 µM (inactive) | 52.2 µM (inactive) | 25.2 µM (inactive) | > 100 µM (inactive) | 29 µM (inactive) | 81.5 µM | 40.7 µM (inactive) | 31.1 µM (inactive) | 49.5 µM (inactive) | 26.2 µM (inactive) | 27.4 µM (inactive) | 40.8 µM (inactive) |
| O=NN1CCNC1Cc1ccccc1 (configuration not stated) | 37.6 µM (inactive) | 18.3 µM (inactive) | > 100 µM (inactive) |  | > 100 µM (inactive) | > 100 µM (inactive) | 58.5 µM (inactive) | > 100 µM (inactive) | > 100 µM (inactive) | 72.6 µM (inactive) | > 100 µM (inactive) | > 100 µM (inactive) | > 100 µM | > 100 µM (inactive) | 37.2 µM (inactive) | > 100 µM (inactive) | > 100 µM (inactive) | > 100 µM (inactive) | > 100 µM (inactive) |
| NC(CCCCNc1ccn(C2OC(CO)C(O)C2O)c(=O)n1)C(=O)O (configuration not stated) | > 100 µM (inactive) | > 100 µM (inactive) | > 100 µM (inactive) | > 100 µM (inactive) | > 100 µM (inactive) | > 100 µM (inactive) |  | 76.6 µM (inactive) | > 100 µM (inactive) | > 100 µM (inactive) | > 100 µM (inactive) |  | 74.5 µM | > 100 µM (inactive) | > 100 µM (inactive) | > 100 µM (inactive) | > 100 µM (inactive) | > 100 µM (inactive) | > 100 µM (inactive) |
| Cc1csc(-c2cn(C)c3c2C(=O)C(=N)C=C3O)n1 | 3.71 µM (inactive) | 1.8 µM (inactive) | 7.01 µM (inactive) | 3.68 µM (inactive) | 51.6 µM (inactive) | 6.41 µM (inactive) | 6.89 µM (inactive) | 5 µM (inactive) | 3.86 µM (inactive) | 1.53 µM (inactive) | 9.98 µM (inactive) | 8.69 µM (inactive) | 6.59 µM | 44.9 µM (inactive) | 3.27 µM (inactive) | 14.1 µM (inactive) | 3.37 µM (inactive) | 6.28 µM (inactive) | 3.52 µM (inactive) |
